We go through 20 compounds from patent US5610320A, “Sulfonamide phenyl substituted compounds” (Eisai Co., Ltd., priority 1990, dated 1997).

Data set [1] deals with KB cells (human nasopharyngeal cells). The experiment in a line: In vitro antineoplastic test on KB cells (MTT, 3 days). The data set is classed as cell-based. The following applies: 72 h.
Experimental: In vitro antineoplastic test on KB cells (human nasopharyngeal cells):
1.25×10^3 (0.1 ml) of KB cells suspended in a RPMI 1640 medium (a product of Nissui Seiyaku Co., Ltd.) containing 20% of bovine fetus serum, penicillin (100 units/ml), streptomycin (100 μg/ml), mercaptoethanol (5×10^-5 M) and sodium pyruvate (1 mM) were placed in each hole of a 96-hole flat-bottom microplate and cultured in an incubator containing 5% of carbon dioxide at 37° C. for one day.
This concentration was the maximum one, which was subjected to two-fold serial dilution with 0.1% bovine fetus serum RPMI 1640 culture liquid containing 0.5% of dimethyl sulfoxide. It was added to the KB cells in each hole of the above-described culture plate in an amount of 0.1 ml and cultured in an incubator containing 5% of carbon dioxide at 37° C. for three days.
After the completion of the culture, 0.05 ml of MTT [3-(4,5-dimethylthiazol-2-yl)-2,5-diphenyltetrazolium bromide] solution (3.3 mg/ml) was added to each hole and the culture was conducted for an additional 1 h. The supernatant liquid was removed from each hole by suction and a formazan thus formed was dissolved in 0.1 ml of dimethyl sulfoxide. The absorbance at 540 nm was determined with a microplate reader to use as an index of a viable count. A percentage inhibition was calculated according to the following formula and the concentration of the test compound for 50% inhibition (IC50) was determined.
Percentage inhibition (%)=(C-T)/C×100
T: absorbance of the hole containing the test compound
C: absorbance of the hole containing no test compound
A further data set has as its system BDF1 mice. Also noted: species or system female). The following applies: mouse, in vivo, 1651 mg/kg. As for the experimental part: EXPERIMENTAL EXAMPLE 3: Toxicity tests
No mouse died, even with 1651 mg/kg of the compound.

Data set [2] has as its system colon 38 (cancer of the colon of mice). The data set is classed as in vivo, mice (BDF1, female). The following applies: once a day for 8 days, 21 days after transplantation. The protocol:
In vivo antineoplastic test on colon 38 (cancer of the colon of mice):
About 75 mg of colon 38 was subcutaneously transplanted in the side of the body of each of 7-week old female BDF1 mice. A compound of the present invention was suspended in 0.5% methylcellulose and oral administration of a predetermined amount of the suspension once a day was started on the next day and continued for 8 days. 0.5% methylcellulose was orally given to a control group. The control group consisted of 10 mice and the group to which the medicine was given consisted of 6 mice.
21 days after the transplantation, the tumors were taken out and weighed. The tumor growth inhibition ratio of the group to which the medicine was given to the control group was determined according to the following formula:
Growth inhibition ratio (%) (C-T)/C×100
T: average weight of tumor in the group to which the test compound was given
C: average weight of tumor in the control group

[3] abbreviates: KB cells in vitro, 37° C. for three days, MTT, read-out: IC50.

Values after ≈ are worked out from the molar mass of the structure shown. Where two headings read alike, the source gives them in different places.

Usually IC50 stands for the concentration that inhibits the measured activity by half. As to `COc1ccc(Nc2ncccc2NS(=O)(=O)c2ccc(OC)cc2)cc1` [Example 4, 4-Methoxy-N-[2-[(4-methoxyphenyl)amino]-3-pyridyl]benzenesulfonamide], in data set [1] (setting [3]), the IC50 is 1.9 µg/mL (≈ 4.93 µM). Besides, the “viability observed for 7 days after the administration” value (“viability observed for 7 days” below) with BDF1 mice is recorded as “No mouse died”. The Growth inhibition ratio in data set [2] (100 mg/kg/day oral) was 99%.
On to `COc1ccc(S(=O)(=O)Nc2ccccc2NC(=O)c2cccnc2C)cc1` [Example 70, N-[2-(4-Methoxybenzenesulfonamido)phenyl]-2-methylnicotinamide], for which, in data set [1] (setting [3]), the 50% inhibitory concentration (IC50) was 0.033 µg/mL (≈ 0.083 µM). Moreover, in data set [2] (50 mg/kg/day oral), the Growth inhibition ratio came out at 63%.
As for `CCc1ccc(S(=O)(=O)Nc2cccnc2Nc2ccccc2)cc1` [Example 2, N-(2-Anilino-3-pyridyl)-4-ethylbenzenesulfonamide], in data set [1] (setting [3]), the IC50 was 1.7 µg/mL (≈ 4.81 µM). For the same compound, the Growth inhibition ratio in data set [2] (100 mg/kg/day oral) worked out at 69%.
As for `COc1ccc(S(=O)(=O)Nc2cccnc2Nc2ccncc2)cc1` [Example 7, 4-Methoxy-N-[2-[(4-pyridyl)amino]-3-pyridyl]benzenesulfonamide], the IC50 in data set [1] (setting [3]) came to 1 µg/mL (≈ 2.81 µM). For the same compound, in data set [2] (50 mg/kg/day oral), the Growth inhibition ratio is given as 61%.
Consider `COc1ccc(S(=O)(=O)Nc2cccnc2Nc2ccccc2)cc1` [Example 3, N-(2-Anilino-3-pyridyl)-4-methoxybenzenesulfonamide], for which the half-maximal inhibitory concentration (IC50) in data set [1] (setting [3]) came to 0.27 µg/mL (≈ 0.76 µM). Moreover, the “viability observed for 7 days” value in the data set on BDF1 mice is given as “No mouse died”. For the same compound, the Growth inhibition ratio in data set [2] (100 mg/kg/day oral) stood at 98%.
For `COc1ccc(S(=O)(=O)Nc2cccnc2Nc2ccc(OC(=O)N(C)C)cc2)cc1` [Example 52, N-[2-[(4-Dimethylcarbamoyloxyphenyl)amino]-3-pyridyl]-4-methoxybenzenesulfonamide], the midpoint of inhibition in data set [1] (KB), the IC50, lay at 0.54 µg/mL (≈ 1.22 µM).
As for `Cc1ccc(S(=O)(=O)Nc2cccnc2Nc2ccccc2)cc1` [Example 1, N-(2-Anilino-3-pyridyl)-p-toluenesulfonamide], in data set [1] (setting [3]), the IC50 was 1.5 µg/mL (≈ 4.42 µM). Moreover, in data set [2] (100 mg/kg/day oral), the Growth inhibition ratio came out at 80%.
Turning to `COc1ccc(S(=O)(=O)Nc2cccnc2Nc2ccc(OC(=O)c3ccccc3N)cc2)cc1` [Example 63, N-[2-[[4-(2-Aminobenzoyloxy)phenyl]amino]-3-pyridyl]-4-methoxybenzenesulfonamide], the half-inhibitory concentration (IC50) in data set [1] (setting [3]) was 0.2 µg/mL (≈ 0.408 µM).
Same read-out and setting: the value for `COc1ccc(S(=O)(=O)Nc2cccc(C)c2NC(=O)c2ccncc2)cc1` [Example 91, N-[2-(4-Methoxybenzenesulfonamido)-6-methylphenyl]isonicotinamide] was 0.079 µg/mL (≈ 0.199 µM); that for `COc1ccc(S(=O)(=O)Nc2cccnc2Nc2ccccc2OC)cc1` [Example 16, 4-Methoxy-N-[2-[(2-methoxyphenyl)amino]-3-pyridyl]benzenesulfonamide] was 1.5 µg/mL (≈ 3.89 µM).
Same read-out and setting: the value for `COc1ccc(S(=O)(=O)Nc2cccnc2Nc2ccc(Oc3ccccc3)cc2)cc1` [Example 40, 4-Methoxy-N-[2-[(4-phenoxyphenyl)amino]-3-pyridyl]benzenesulfonamide] was 2.1 µg/mL (≈ 4.69 µM).
The same measure, in the same setting: in the case of `CCOc1ccc(Nc2ncccc2NS(=O)(=O)c2ccc(OC)cc2)cc1` [Example 35, N-[2-[(4-Ethoxyphenyl)amino]-3-pyridyl]-4-methoxybenzenesulfonamide] it was 0.45 µg/mL (≈ 1.13 µM).
For the compound `COc1ccc(S(=O)(=O)Nc2cccnc2Nc2ccccc2C)cc1` [Example 18, 4-Methoxy-N-[2-[2(2-methylphenyl)amino]-3-pyridyl]benzenesulfonamide], in data set [1] (setting [3]), the concentration for half-maximal inhibition (IC50) was 0.73 µg/mL (≈ 1.98 µM).
The same measure, in the same setting: in the case of `Nc1ccc(S(=O)(=O)Nc2cccnc2Nc2ccccc2)cc1` [Example 21, 4-Amino-N-(2-anilino-3-pyridyl)benzenesulfonamide] it was 1.1 µg/mL (≈ 3.23 µM).
Regarding `COc1ccc(S(=O)(=O)Nc2cccnc2Nc2ccc(O)cc2)cc1` [Example 6, N-[2-[(4-Hydroxyphenyl)amino]-3-pyridyl]-4-methoxybenzenesulfonamide], in data set [1] (setting [3]), the IC50 turned out to be 0.42 µg/mL (≈ 1.13 µM). The “viability observed for 7 days” value in the data set on BDF1 mice is recorded as “No mouse died”. For the same compound, the Growth inhibition ratio in data set [2] (100 mg/kg/day oral) was found to be 98%.
In the case of `CCOc1ccc(S(=O)(=O)Nc2cccnc2Nc2ccccc2)cc1` [Example 27, N-(2-Anilino-3-pyridyl)-4-ethoxybenzenesulfonamide], the half-maximal inhibitory concentration (IC50) in data set [1] (setting [3]) was 1.4 µg/mL (≈ 3.79 µM).
Same read-out and setting: the value for `COc1ccc(S(=O)(=O)Nc2ccccc2NC(=O)c2ccncc2C)cc1` [Example 72, N-[2-(4-Methoxybenzenesulfonamido)phenyl]-3-methylisonicotinamide] was 0.012 µg/mL (≈ 0.0302 µM).
On the same count and under the same terms, in the case of `COc1ccc(S(=O)(=O)Nc2cccnc2Nc2cccc(OC)c2)cc1` [Example 13, 4-Methoxy-N-[2-[(3-methoxyphenyl)amino]-3-pyridyl]benzenesulfonamide] it was 2.6 µg/mL (≈ 6.75 µM); in that of `COc1ccc(S(=O)(=O)Nc2c(Nc3ccccc3)ncnc2OC)cc1` [Example 47, N-(4-Anilino-6-methoxy-5-pyrimidyl)-4-methoxybenzenesulfonamide], 2.6 µg/mL (≈ 6.73 µM).
On the same count and under the same terms, the value for `COc1ccc(S(=O)(=O)Nc2ccccc2Nc2ccccn2)cc1` [Example 76, 4-Methoxy-N-[2-[(2-pyridyl)amino]phenyl]benzenesulfonamide] was 0.13 µg/mL (≈ 0.366 µM).
